From patent US20240327311A1, “Benzothiazole Derivative as a Urease Inhibitor for Fertilizer Application” (Sabic Agri-Nutrients Company, priority 2021, published 2024)

Experiments:
urease = urease (Canavalia ensiformis, UniProt P07374); details: cited from earlier work
[1] = Thermogravimetric analysis and isothermal study under air; format: physicochemical; details: air atmosphere
[2] = similar storage conditions; Soil Use and Management, 2008, 24, 246; cited from earlier work
[3] = similar conditions; U.S. Pat. No. 10,640,430; cited from earlier work

Sequence of urease (P07374 whole entry, looked up): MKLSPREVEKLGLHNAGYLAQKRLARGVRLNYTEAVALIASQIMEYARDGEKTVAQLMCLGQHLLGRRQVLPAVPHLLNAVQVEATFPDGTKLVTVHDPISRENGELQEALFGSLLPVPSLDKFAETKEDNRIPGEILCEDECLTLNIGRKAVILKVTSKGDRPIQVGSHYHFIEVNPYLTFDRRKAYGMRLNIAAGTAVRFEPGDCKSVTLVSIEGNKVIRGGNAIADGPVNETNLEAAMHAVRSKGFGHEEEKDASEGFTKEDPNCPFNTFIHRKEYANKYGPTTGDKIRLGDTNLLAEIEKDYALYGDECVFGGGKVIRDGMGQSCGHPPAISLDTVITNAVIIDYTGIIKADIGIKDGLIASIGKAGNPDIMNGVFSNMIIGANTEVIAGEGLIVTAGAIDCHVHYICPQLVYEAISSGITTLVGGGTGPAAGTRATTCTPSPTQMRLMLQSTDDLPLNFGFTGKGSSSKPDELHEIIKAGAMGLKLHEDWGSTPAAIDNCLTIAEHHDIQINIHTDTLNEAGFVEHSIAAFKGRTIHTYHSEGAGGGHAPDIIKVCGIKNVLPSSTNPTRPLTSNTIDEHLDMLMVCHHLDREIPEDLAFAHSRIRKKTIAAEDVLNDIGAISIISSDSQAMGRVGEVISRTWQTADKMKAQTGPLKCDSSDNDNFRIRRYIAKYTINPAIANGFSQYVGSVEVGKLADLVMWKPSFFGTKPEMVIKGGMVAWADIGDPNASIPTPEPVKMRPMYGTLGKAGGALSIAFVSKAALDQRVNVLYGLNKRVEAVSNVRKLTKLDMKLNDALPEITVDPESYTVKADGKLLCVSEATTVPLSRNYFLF

NP(N)(=O)Nc1ccccc1[N+](=O)[O-]
IC50 (urease): 3 nM

Oc1cccc(-c2nc3ccccc3s2)c1 [BZT, 2-(3-Hydroxyphenyl) benzothiazole]
amount of BZT lost (isothermal study) ([1]; 140° C., 40 minutes): about 0.26% | onset of degradation (TGA) [1]: 255.1 °C

CCCCNP(N)(N)=S [NBTPT, N-(n-butyl) thiophosphoric triamide]
storage stability [2]: unstable | degradation under urea melt conditions [3]: significant degradation

CCCCNP(N)(N)=S [drawing 22]
IC50 (urease): 100 nM
